{"source": "patent US20070026026A1", "about": "(priority 2005, published 2007)", "origin": "cited, not measured here", "key": {"[1]": {"conditions": "cited from earlier work"}, "AT1 receptor": {"biological_target": "T1, AT1 receptor (Homo sapiens, UniProt P30556)", "T1 sequence (P30556 1-359)": "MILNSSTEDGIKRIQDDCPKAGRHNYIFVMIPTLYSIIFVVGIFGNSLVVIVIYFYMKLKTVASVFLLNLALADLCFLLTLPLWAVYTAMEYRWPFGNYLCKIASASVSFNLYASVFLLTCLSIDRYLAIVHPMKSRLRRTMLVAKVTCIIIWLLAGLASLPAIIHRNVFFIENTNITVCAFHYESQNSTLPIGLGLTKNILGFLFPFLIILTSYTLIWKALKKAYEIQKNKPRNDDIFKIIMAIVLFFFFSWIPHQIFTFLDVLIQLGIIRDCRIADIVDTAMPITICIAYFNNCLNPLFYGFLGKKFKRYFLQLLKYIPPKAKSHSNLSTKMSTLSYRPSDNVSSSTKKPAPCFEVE", "conditions": "cited from earlier work"}, "cytochrome P450 3A4": {"biological_target": "cytochrome P450 3A4 (Homo sapiens, UniProt P08684)", "sequence (P08684 whole entry)": "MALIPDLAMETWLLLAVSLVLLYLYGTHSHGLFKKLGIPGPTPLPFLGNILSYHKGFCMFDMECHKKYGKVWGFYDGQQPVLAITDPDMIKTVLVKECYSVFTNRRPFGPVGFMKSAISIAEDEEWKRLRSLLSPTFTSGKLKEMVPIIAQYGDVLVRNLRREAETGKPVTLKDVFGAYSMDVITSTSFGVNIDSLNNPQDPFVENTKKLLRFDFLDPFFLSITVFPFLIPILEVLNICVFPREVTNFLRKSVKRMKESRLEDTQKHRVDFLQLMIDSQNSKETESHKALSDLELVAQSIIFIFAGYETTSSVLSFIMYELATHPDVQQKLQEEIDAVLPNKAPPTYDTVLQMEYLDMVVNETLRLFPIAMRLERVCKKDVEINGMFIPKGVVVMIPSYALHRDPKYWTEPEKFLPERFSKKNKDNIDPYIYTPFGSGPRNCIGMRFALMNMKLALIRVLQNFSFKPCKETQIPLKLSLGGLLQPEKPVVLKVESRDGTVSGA", "conditions": "in vitro studies; cited from earlier work"}, "cytochrome P450 2C9": {"biological_target": "cytochrome P450 2C9 (Homo sapiens, UniProt P11712)", "sequence (P11712 whole entry)": "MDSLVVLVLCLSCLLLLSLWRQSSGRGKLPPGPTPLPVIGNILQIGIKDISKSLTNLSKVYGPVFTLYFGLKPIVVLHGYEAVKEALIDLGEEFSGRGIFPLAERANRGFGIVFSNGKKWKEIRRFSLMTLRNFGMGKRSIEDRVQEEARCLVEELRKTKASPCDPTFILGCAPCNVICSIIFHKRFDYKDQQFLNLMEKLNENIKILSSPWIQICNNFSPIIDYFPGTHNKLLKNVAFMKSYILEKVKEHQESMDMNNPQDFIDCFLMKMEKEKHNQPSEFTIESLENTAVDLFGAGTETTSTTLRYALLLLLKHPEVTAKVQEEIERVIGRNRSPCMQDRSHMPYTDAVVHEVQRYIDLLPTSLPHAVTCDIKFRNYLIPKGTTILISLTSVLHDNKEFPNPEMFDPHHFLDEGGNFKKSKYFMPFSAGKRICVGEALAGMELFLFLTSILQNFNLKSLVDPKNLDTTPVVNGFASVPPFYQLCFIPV", "conditions": "in vitro studies; cited from earlier work"}, "[2]": {"conditions": "room temperature; cited from earlier work"}}}
{"smiles": "CCCCc1nc(Cl)c(CO)n1Cc1ccc(-c2ccccc2-c2nn[nH]n2)cc1", "note": "[losartan]", "values": [{"measurement": "terminal half-life", "setting": "[1]; in vivo", "value": "about 2 hours"}, {"measurement": "maximum plasma concentrations of losartan and its active metabolite compared", "setting": "[1]; oral administration", "value": "approximately equal"}, {"measurement": "systemic bioavailability", "setting": "[1]; oral administration", "value": "approximately 33%"}, {"measurement": "time to mean peak concentrations", "setting": "[1]; oral administration", "value": 1, "unit": "h"}, {"measurement": "pharmacokinetics, dose dependence", "setting": "[1]; oral losartan doses up to 200 mg", "value": "linear"}, {"measurement": "effect of a meal on AUC (decrease)", "setting": "[1]; with a meal", "value": "about 10%"}, {"measurement": "effect of a meal on Cmax", "setting": "[1]; with a meal", "value": "decreases"}, {"measurement": "effect of a meal on absorption", "setting": "[1]; with a meal", "value": "slows absorption"}, {"measurement": "partial agonist activity at the AT1 receptor", "setting": "AT1 receptor", "value": "do not exhibit any partial agonist activity"}, {"measurement": "involvement in the biotransformation of losartan to its metabolites", "setting": "cytochrome P450 3A4", "value": "involved"}, {"measurement": "involvement in the biotransformation of losartan to its metabolites", "setting": "cytochrome P450 2C9", "value": "involved"}]}
{"smiles": "CCCCc1nc(Cl)c(CO)n1Cc1ccc(-c2ccccc2-c2nnn[n-]2)cc1.[K+]", "note": "[Form I]", "values": [{"measurement": "thermodynamic stability of the polymorph", "setting": "[2]", "value": "more thermodynamically stable polymorph"}]}
